{"source": "patent US20110245213A1", "about": "“TREATMENT” (PROVEXIS NATURAL PRODUCTS LIMITED, priority 2008, published 2011)", "key": {"bovine insulin": {"target": "T1, bovine insulin (Bos taurus, UniProt P01317)", "T1 construct": "m/z 325.2 corresponds to Phe-SF, the N-terminal amino acid of insulin B chain; m/z 235.0 corresponds to Gly-SF, the N-terminal amino acid of insulin A chain; purchased Sigma-Aldrich", "T1 sequence (P01317 25-54 limits assumed)": "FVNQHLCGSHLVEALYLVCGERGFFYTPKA", "T1 sequence (P01317 85-105 limits assumed)": "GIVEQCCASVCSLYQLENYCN", "assay": "Incubation of peptides with isothiocyanates, LC-MS/MS: insulin", "format": "binding", "settings": "for conjugate of insulin peptide and ITC: PBS pH 7.4, 37° C., 0.5 to 24 hours"}, "[1]": {"target": "T2, recombinant human epidermal growth factor (EGF) (Homo sapiens, UniProt P01133)", "T2 construct": "addition of SF to the N-terminal asparagines residue (m/z 309) of EGF; purchased R&D Systems", "T2 sequence (P01133 971-1023 limits assumed)": "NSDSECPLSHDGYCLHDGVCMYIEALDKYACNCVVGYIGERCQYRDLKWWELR", "assay": "Incubation of peptides with isothiocyanates, LC-MS/MS: EGF", "format": "binding", "settings": "for conjugate of EGF peptide and ITC: PBS pH 7.4, 37° C., 0.5 to 24 hours"}, "[2]": {"target": "T3, recombinant human transforming growth factor beta 1 (TGFβ1) (Homo sapiens, UniProt P01137)", "T3 construct": "TGFβ1 was robustly identified in bands of 25 kDa corresponding to the active dimer; purchased R&D Systems", "T3 sequence (P01137 279-390 limits assumed)": "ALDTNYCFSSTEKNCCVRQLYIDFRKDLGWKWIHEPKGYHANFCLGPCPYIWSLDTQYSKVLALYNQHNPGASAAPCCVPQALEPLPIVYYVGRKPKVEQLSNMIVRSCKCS", "assay": "Incubation of peptides with isothiocyanates, LC-MS/MS: TGFβ1", "format": "binding", "settings": "for conjugate of TGFβ1 peptide and ITC: PBS pH 7.4, 37° C., 0.5 to 24 hours"}, "[3]": {"tested_on": "TGFβ1/Smad mediated transcription", "assay": "Luciferase reporter gene assay in NIH 3T3 cells with CAGA12-luc plasmid", "format": "cell-based", "experimental": "NIH 3T3 cells stably transfected with a CAGA12-luc plasmid, which responds to Smad activation (Dennler et al. (1998) Embo J 17: 3091-3100), were cultured in DMEM supplemented with 10% fetal calf serum (FCS), 1% penicillin, 1% streptomycin, 1% L-glutamine and 0.4 mg/ml geneticin. Cells were seeded into complete growth medium in a six-well tissue culture dish for 24 h, after which the medium was replaced with low serum medium (0.5% FCS) containing one of three treatments:\n(1) TGFβ1 (to achieve a final concentration of 2 ng ml^−1) in PBS buffer,\n(2) (TGFβ1+10 mM DTT in PBS buffer\n(3) TGFβ1+2 μM SF in PBS buffer.\nTo simulate SF pharmacokinetics, all test samples were incubated at 37° C. for 30 minutes prior to dialysis, performed in PBS buffer for 4 hours using Slide-A-Lyzer Dialysis Cassettes MWCO 3.5K (PIERCE, http://www.piercenet.com/). Dialysis reduced SF concentration to 34 nM. As additional controls, cells were treated with PBS without TGFβ1 and PBS with SF (34 nM). The luciferase activity was determined 16 h following treatment using the Luciferase Reporter Gene assay (Roche Applied Science, http://www.roche.com/) in a Perkin Elmer Wallac Victor 2 1420 multilabel counter plate reader (http://las.perkinelmer.com/). Briefly, cells were washed twice with PBS and lysed in cell lysis buffer supplied with the assay. Chemiluminescence was immediately quantified following the addition of luciferase assay substrate. Luciferase values were normalized to protein concentration quantified using the BCA assay (Sigma-Aldrich, http://www.sigmaaldrich.com/). The experiment was repeated four times, with three replicates of each treatment per experiment. Statistical analysis was performed using 1-way ANOVA with the statistical software, R (http://www.R-project.org)."}, "[4]": {"tested_on": "Smad2 phosphorylation in PC3 cells", "assay": "Quantification of pSmad2 protein in PC3 cells", "format": "cell-based", "settings": "for PSmad2 / PSmad2 Normalised to GAPDH: PC3 cells", "experimental": "FIG. 14 represents (a) a photograph of a gel; and (b) the data quantified in a bar chart which corresponds to the data presented in Table 6 as discussed in Example 2 (Expt 2). The data illustrates how an ITC modulates Smad activity. The experiment concerned pre-incubation of TGFβ1 with and without sulforaphane (SF) for 30 minutes before treating PC3 cells for 1 h and then measuring Smad2 phosphorylation (i.e. a function of TGFβ1 activity).\nTGFβ1 acts an anti-inflammatory cytokine. It induces phosphorylation of smad proteins that translocate to the nucleus and induce gene expression associated with anti-inflammatory activity. […] Therefore ITCs act as anti-inflammatory mediators."}, "[5]": {"tested_on": "Smad2 phosphorylation in A549 cells", "assay": "Quantification of pSmad2 protein in A549 cells", "format": "cell-based", "settings": "TGFβ1 alone"}, "[6]": {"tested_on": "EGF receptor phosphorylation in BPH1 cells (hyperplastic prostate cells)", "settings": "BPH cells"}, "[7]": {"settings": "following broccoli consumption, cited from earlier work"}, "[8]": {"settings": "TGFβ1 + 2 μM SF, pre-incubated 30 minutes, cells treated 1 h"}, "[9]": {"settings": "TGFβ1 + 10 μM SF, pre-incubated 30 minutes, cells treated 1 h"}}, "note": "Several values for one entry are separate records, joined by “and”; a condition that tells them apart may be missing. Equal entries are not always repeated."}
{"compound": "C[S+]([O-])CCCN=C=S", "note": "(stereo not shown) [IB, iberin]", "values": [{"measurement": "conjugate of insulin peptide and ITC", "setting": "bovine insulin", "result": "formation of a covalently bound conjugate"}, {"measurement": "conjugate of EGF peptide and ITC", "setting": "[1]", "result": "formation of a covalently bound conjugate"}, {"measurement": "conjugate of TGFβ1 peptide and ITC", "setting": "[2]", "result": "formation of a covalently bound conjugate"}]}
{"compound": "TGFβ1: recombinant human transforming growth factor beta 1 (P01137, R&D Systems)", "values": [{"measurement": "luciferase activity", "setting": "[3]; TGFβ1 alone, 2 ng ml^−1", "result": "induced luciferase activity"}, {"measurement": "PSmad2", "setting": "[4]; TGFβ1 alone, 1 h", "result": "6154 counts/mm^2 and 10910 counts/mm^2 and 7089 counts/mm^2"}, {"measurement": "PSmad2 Normalised to GAPDH", "setting": "[4]; TGFβ1 alone, 1 h", "result": "0.1039 and 0.1722 and 0.1398"}, {"measurement": "PSmad2", "setting": "[5]", "result": 1570, "unit": "counts/mm^2"}, {"measurement": "PSmad2 Normalised to GAPDH", "setting": "[5]", "result": 0.1320}]}
{"compound": "C[S+]([O-])CCCCN=C=S", "note": "(stereo not shown) [SF, sulforaphane]", "values": [{"measurement": "conjugate of insulin peptide and ITC", "setting": "bovine insulin", "result": "formation of a covalently bound conjugate"}, {"measurement": "insulin-ITC conjugates (N-terminal Gly and Phe) by LC-MS/MS", "setting": "bovine insulin; human plasma depleted of high MW proteins", "result": "appearance of two insulin-SF conjugates"}, {"measurement": "conjugate of EGF peptide and ITC", "setting": "[1]", "result": "formation of a covalently bound conjugate"}, {"measurement": "EGF conjugates (N-terminal asparagine) by LC-MS/MS", "setting": "[1]; human plasma", "result": "formation of EGF conjugates with SF"}, {"measurement": "modification of TGFβ1 (tryptic N-terminal peptide, LC-MS/MS)", "setting": "[2]; 1 μg TGFβ1 with 1.2 μmoles of SF, 30 minutes at 37° C., SDS-PAGE, trypsin", "result": "N-terminal modification"}, {"measurement": "conjugate of TGFβ1 peptide and ITC", "setting": "[2]", "result": "formation of a covalently bound conjugate"}, {"measurement": "Smad-mediated transcription (luciferase) compared to TGFβ1 alone", "setting": "[3]; TGFβ1 pre-incubated with 2 μM SF for 30 minutes followed by dialysis (SF 34 nM)", "result": "increase in Smad-mediated transcription"}, {"measurement": "Smad-mediated transcription (luciferase)", "setting": "[3]; residual SF (34 nM) alone, without TGFβ1", "result": "did not result in enhanced transcription"}, {"measurement": "expression of pSmad2 compared to TGFβ1 alone", "setting": "[4]; PC3 cell line, co-exposure to TGFβ1 and SF", "result": "enhances expression of psamd2"}, {"measurement": "PSmad2", "setting": "[4]; [8]", "result": "8179 counts/mm^2 and 12578 counts/mm^2 and 11881 counts/mm^2"}, {"measurement": "PSmad2 Normalised to GAPDH", "setting": "[4]; [8]", "result": "0.1772 and 0.2807 and 0.3091"}, {"measurement": "PSmad2", "setting": "[4]; [9]", "result": "13595 counts/mm^2 and 16870 counts/mm^2 and 15049 counts/mm^2"}, {"measurement": "PSmad2 Normalised to GAPDH", "setting": "[4]; [9]", "result": "0.2602 and 0.2810 and 0.3104"}, {"measurement": "reduction in EGF receptor phosphorylation", "setting": "[6]; 10 μmol/L sulforaphane, 10 mg/L EGF, 10 minute timecourse", "result": "approximately threefold"}, {"measurement": "amount of phosphorylated EGF receptor compared to EGF alone", "setting": "[6]; pre-incubation of EGF with ITC", "result": "reduces the amount of phosphorylated receptor"}, {"measurement": "SF in the plasma that occurs as free SF, as opposed to thiol conjugates", "setting": "[7]", "result": 45, "unit": "%"}, {"measurement": "peak concentration of SF and its thiol conjugates", "setting": "[7]; plasma", "result": "less than 2 μM"}]}
